Legend:
[1] = molecular target: T1, Pim-1 stably transfected into the U2OS human osteogenic sarcoma line (Homo sapiens, UniProt P11309); test: Pim cell assay, phospho-BAD normalized against total BAD, U2OS stably transfected with Pim-1; format: cell-based; conditions: U2OS cells stably transfected with Pim-1, phospho-BAD; high dose […]; read-out: Pim1_Cell_IC50
T1 construct: expressed in transfected cells; host or cells: U2OS human osteogenic sarcoma line
Procedure, shortened: (§1)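 U2OS cells stably expressing Pim-1 or Pim-2 were plated overnight at 37 °C, then dosed over a 10-point curve (final 0.3% DMSO; DMSO alone as high control). Lysates assayed for phospho- and total BAD by Meso Scale immunoassay; % phosphoprotein = (2×phospho)/(phospho+total)×100.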

[2] = molecular target: T2, full length recombinant Pim-1 protein (Homo sapiens, UniProt P11309); test: Pim-1 enzyme assay (HTRF, phosphorylation of biotinylated-BAD (S112) peptide); format: biochemical; conditions: enzyme assay, Pim-1; read-out: Pim_1_IC50
T2 construct: by full length recombinant Pim-1, Pim-2, or Pim-3 protein; hexahistidine tag followed by a thrombin cleavage site (N); made in house; host or cells: Sf9 (baculovirus) or E. coli (pET28)
Procedure, shortened: (§2)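 Inhibition is reported as IC50 from a 4-parameter logistic fit of percent-of-control HTRF signal, which tracks phospho-BAD (S112) formed by full-length human Pim-1 or Pim-2. Reactions ran in 60 mM Hepes, pH 7.0, 0.05% BSA, 2 mM DTT.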

[3] = molecular target: T3, Pim-2 stably transfected into the U2OS human osteogenic sarcoma line (Homo sapiens, UniProt Q9P1W9); test: Pim cell assay, phospho-BAD normalized against total BAD, U2OS stably transfected with Pim-2; format: cell-based; conditions: U2OS cells stably transfected with Pim-2, phospho-BAD; high dose […]; read-out: Pim2_Cell_IC50; also: high dose 31.6 µM
T3 construct: expressed in transfected cells; host or cells: U2OS human osteogenic sarcoma line
Procedure, shortened: as §1

[4] = molecular target: T4, full length recombinant Pim-3 protein (Homo sapiens, UniProt Q86V86); test: Pim-3 enzyme assay (HTRF, phosphorylation of biotinylated-BAD (S112) peptide); format: biochemical; conditions: read-out: Pim3 IC50
T4 construct: by full length recombinant Pim-1, Pim-2, or Pim-3 protein; purchased Millipore (UK)
Procedure, shortened: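 Full-length recombinant Pim-3 phosphorylates biotinylated BAD (S112) peptide in 60 mM Hepes pH 7.0, 0.05% BSA, 2 mM DTT; reaction stopped with 3 mM EDTA. Phospho-BAD detected by HTRF (Eu anti-phospho-BAD S112 antibody, streptavidin-APC). IC50 from percent-of-control values fitted to a 4-parameter logistic model.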

[5] = molecular target: T5, full length recombinant Pim-2 protein (Homo sapiens, UniProt Q9P1W9); test: Pim-2 enzyme assay (HTRF, phosphorylation of biotinylated-BAD (S112) peptide); format: biochemical; conditions: enzyme assay, Pim-2; read-out: Pim2_IC50
T5 construct: by full length recombinant Pim-1, Pim-2, or Pim-3 protein; hexahistidine tag followed by a thrombin cleavage site (N); made in house; host or cells: Sf9 (baculovirus) or E. coli (pET28)
Procedure, shortened: as §2

T5 sequence (Q9P1W9 whole entry): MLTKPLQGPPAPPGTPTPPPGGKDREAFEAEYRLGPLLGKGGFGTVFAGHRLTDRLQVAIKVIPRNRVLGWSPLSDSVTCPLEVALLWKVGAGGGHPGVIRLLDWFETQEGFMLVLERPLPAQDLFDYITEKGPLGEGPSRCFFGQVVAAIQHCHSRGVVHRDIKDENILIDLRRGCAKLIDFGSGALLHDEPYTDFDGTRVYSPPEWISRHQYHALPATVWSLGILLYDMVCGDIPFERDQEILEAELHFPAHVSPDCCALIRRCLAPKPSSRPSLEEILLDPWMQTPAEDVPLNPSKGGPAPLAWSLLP
T3 sequence (Q9P1W9 whole entry): as above
T1 sequence (P11309 whole entry): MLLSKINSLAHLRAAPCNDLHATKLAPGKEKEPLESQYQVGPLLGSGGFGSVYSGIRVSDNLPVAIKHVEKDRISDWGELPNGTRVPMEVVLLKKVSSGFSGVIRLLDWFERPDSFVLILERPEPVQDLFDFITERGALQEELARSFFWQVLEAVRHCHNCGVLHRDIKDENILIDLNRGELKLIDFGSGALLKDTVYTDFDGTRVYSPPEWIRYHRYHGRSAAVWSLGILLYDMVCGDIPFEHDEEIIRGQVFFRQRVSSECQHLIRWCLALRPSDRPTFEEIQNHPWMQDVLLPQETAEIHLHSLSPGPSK
T2 sequence (P11309 whole entry): as above

IC50 [1] [nM]	IC50 [2] [nM]	IC50 [3] [µM]	IC50 [4] [nM]	IC50 [5] [nM]	Compound
4720	3	> 31.6	5	57	NC1CCN(c2cncc(-c3n[nH]c4ccc(-c5cn6ccnc6cn5)cc34)n2)CC1 [Example 99, 1-(6-(5-imidazo[1,2-a]pyrazin-6-yl-1H-indazol-3-yl)-2-pyrazinyl)-4-piperidinamine]
1250	1	> 31.6	2	18	Nc1cc(-c2ccc3[nH]nc(-c4cncc(N5CCC(N)CC5)n4)c3c2)ccn1 [Example 100, 4-(3-(6-(4-amino-1-piperidinyl)-2-pyrazinyl)-1H-indazol-5-yl)-2-pyridinamine]
269	4	> 31.6	10	55	COc1ccc2c(-c3ccc4[nH]nc(-c5cncc(N6CCC(N)CC6)n5)c4c3)ccnc2c1 [Example 101, 1-(6-(5-(7-methoxy-4-quinolinyl)-1H-indazol-3-yl)-2-pyrazinyl)-4-piperidinamine]
199	2	5	3	20	NC1CCN(c2cncc(-c3n[nH]c4ccc(-c5ccncc5)cc34)n2)CC1 [Example 102, 1-(6-(5-(4-pyridinyl)-1H-indazol-3-yl)-2-pyrazinyl)-4-piperidinamine]
172	6	8.5	12	77	COc1cncc(-c2ccc3[nH]nc(-c4cncc(O[C@@H]5CCCNC5)n4)c3c2)c1 [Example 114, 5-(5-methoxy-3-pyridinyl)-3-(6-((3R)-3-piperidinyloxy)-2-pyrazinyl)-1H-indazole]
958	33	> 31.6	20	155	Fc1cncc(-c2ccc3[nH]nc(-c4cncc(O[C@@H]5CCCNC5)n4)c3c2)c1 [Example 115, 5-(5-fluoro-3-pyridinyl)-3-(6-((3R)-3-piperidinyloxy)-2-pyrazinyl)-1H-indazole]
157	3	3.01	5	23	c1cc2cc(-c3ccc4[nH]nc(-c5cncc(O[C@@H]6CCCNC6)n5)c4c3)cnc2[nH]1 [Example 121, 3-(6-((3R)-3-piperidinyloxy)-2-pyrazinyl)-5-(1H-pyrrolo[2,3-b]pyridin-5-yl)-1H-indazole]
287	16	1.85	20	14	CC(C)NC(=O)c1ccc(F)c(-c2ccc3[nH]nc(-c4cncc(O[C@@H]5CCCNC5)n4)c3c2)c1 [Example 122, 4-fluoro-N-(1-methylethyl)-3-(3-(6-((3R)-3-piperidinyloxy)-2-pyrazinyl)-1H-indazol-5-yl)benzamide]
563	13	> 31.6	6	161	CC(C)c1ccnc(-c2ccc3[nH]nc(-c4cncc(O[C@@H]5CCCNC5)n4)c3c2)n1 [Example 126, 5-(4-(1-methylethyl)-2-pyrimidinyl)-3-(6-((3R)-3-piperidinyloxy)-2-pyrazinyl)-1H-indazole]
1020	13	> 31.6	6	67	c1cc(C2CC2)nc(-c2ccc3[nH]nc(-c4cncc(O[C@@H]5CCCNC5)n4)c3c2)n1 [Example 127, 5-(4-cyclopropyl-2-pyrimidinyl)-3-(6-((3R)-3-piperidinyloxy)-2-pyrazinyl)-1H-indazole]
208	7	9.24	8	25	CN1CCOc2cc(-c3ccc4[nH]nc(-c5cncc(O[C@@H]6CCCNC6)n5)c4c3)cnc21 [Example 130, 4-methyl-7-(3-(6-((3R)-3-piperidinyloxy)-2-pyrazinyl)-1H-indazol-5-yl)-3,4-dihydro-2H-pyrido[3,2-b][1,4]oxazine]
151	2	8.91	5	15	COc1cccc(-c2ccc3[nH]nc(-c4cncc(O[C@@H]5CCCNC5)n4)c3c2)c1F [Example 131, 5-(2-fluoro-3-methoxyphenyl)-3-(6-((3R)-3-piperidinyloxy)-2-pyrazinyl)-1H-indazole]
245	8	3.05	14	14	O=C(NC1CC1)c1cccc(-c2ccc3[nH]nc(-c4cncc(O[C@@H]5CCCNC5)n4)c3c2)c1 [Example 132, N-cyclopropyl-3-(3-(6-((3R)-3-piperidinyloxy)-2-pyrazinyl)-1H-indazol-5-yl)benzamide]
435	5	7.84	6	17	Fc1ccccc1-c1ccc2[nH]nc(-c3cncc(O[C@@H]4CCCNC4)n3)c2c1 [Example 133, 5-(2-fluorophenyl)-3-(6-((3R)-3-piperidinyloxy)-2-pyrazinyl)-1H-indazole]
921	5	> 31.6	14	185	c1cn2cc(-c3ccc4[nH]nc(-c5cncc(O[C@@H]6CCCNC6)n5)c4c3)ncc2n1 [Example 138, 6-(3-(6-((3R)-3-piperidinyloxy)-2-pyrazinyl)-1H-indazol-5-yl)imidazo[1,2-a]pyrazine]
454	13	3.78	12	13	O=C(NC1CC1)c1ccc(F)c(-c2ccc3[nH]nc(-c4cncc(O[C@@H]5CCCNC5)n4)c3c2)c1 [Example 139, N-cyclopropyl-4-fluoro-3-(3-(6-((3R)-3-piperidinyloxy)-2-pyrazinyl)-1H-indazol-5-yl)benzamide]
625	19	> 31.6	6	87	FC(F)(F)c1cccc(-c2ccc3[nH]nc(-c4cncc(O[C@@H]5CCCNC5)n4)c3c2)n1 [Example 142, 3-(6-((3R)-3-piperidinyloxy)-2-pyrazinyl)-5-(6-(trifluoromethyl)-2-pyridinyl)-1H-indazole]
873	5	> 31.6	25	34	CC(C)Oc1cc(-c2ccc3[nH]nc(-c4cncc(O[C@@H]5CCCNC5)n4)c3c2)ccn1 [Example 143, 5-(2-(1-methylethoxy)-4-pyridinyl)-3-(6-((3R)-3-piperidinyloxy)-2-pyrazinyl)-1H-indazole]
36	1	> 15.8	1	121	c1cc2[nH]nc(-c3cncc(O[C@@H]4CCCNC4)n3)c2cc1-c1cncc(NC2CC2)n1 [Example 158, N-cyclopropyl-6-(3-(6-((3R)-3-piperidinyloxy)-2-pyrazinyl)-1H-indazol-5-yl)-2-pyrazinamine]
1630	58	> 31.6	49	969	O[C@H]1CCCN(c2cncc(-c3n[nH]c4ccc(-c5c(F)cccc5F)cc34)n2)C1 [Example 163, (3S)-1-(6-(5-(2,6-difluorophenyl)-1H-indazol-3-yl)-2-pyrazinyl)-3-piperidinol]
582	6	14.3	6	61	CN(c1cncc(-c2n[nH]c3ccc(-c4c(F)cccc4F)cc23)n1)C1CCCNC1 (stereo not drawn) [Example 178, 6-(5-(2,6-difluorophenyl)-1H-indazol-3-yl)-N-methyl-N-3-piperidinyl-2-pyrazinamine]
2130	76	> 31.6	81	643	CCNc1cncc(-c2n[nH]c3ccc(-c4c(F)cccc4F)cc23)n1 [Example 180, 6-(5-(2,6-difluorophenyl)-1H-indazol-3-yl)-N-ethyl-2-pyrazinamine]
2460	40	> 31.6	49	556	CC(C)Nc1cncc(-c2n[nH]c3ccc(-c4c(F)cccc4F)cc23)n1 [Example 182, 6-(5-(2,6-difluorophenyl)-1H-indazol-3-yl)-N-(1-methylethyl)-2-pyrazinamine]
4260	44	> 31.6	44	679	CC(C)(C)Nc1cncc(-c2n[nH]c3ccc(-c4c(F)cccc4F)cc23)n1 [Example 183, N-tert-butyl-6-(5-(2,6-difluorophenyl)-1H-indazol-3-yl)-2-pyrazinamine]

Source: patent US9090593B2, “Bicyclic compounds as Pim inhibitors” (AMGEN INC., priority 2010, dated 2015)
